PMC10177692, “Novel topoisomerase II/EGFR dual inhibitors: design, synthesis and docking studies of naphtho[2′,3′:4,5]thiazolo[3,2-a]pyrimidine hybrids as potential anticancer agents with apoptosis inducing activity” (Journal of Enzyme Inhibition and Medicinal Chemistry, 2023)
Like-named read-outs stand apart in the source and are kept apart here.

Key:
A549 = assay: MTT anti-proliferative assay; format: cell-based, human; details: for IC50: Homo sapiens, A549, MTT, 24 h, mean ± SE of three experiments, read-out: IC50 (µM) ± S.E. A549
Description: (§1) The culture media were supplemented with 10% heat inactivated foetal bovine serum (FBS, HyClone, Thermo Scientific) and antibiotics (100 U/ml penicillin and 100 µg/ml streptomycin, HyClone, Thermo Scientific). The cells were incubated in a humidified atmosphere containing 5% CO2 (Heracell VIOS CO2 incubator, Thermo Scientific) in air at 37 °C.
(§2) MTT reagent, at volume equal to 10% of the culture medium volume, was added to the cultured cells and to the blank wells. The culture plates were re-incubated for 2–4 h depending on cell type and density. After the incubation period, culture plates were restored from the incubator and the obtained formazan crystals were dissolved in acidified isopropanol with continuous shaking using plate shaker (MaxQ 2000, Thermo Fisher Scientific Inc., MI, USA) at room temperature. Absorbance was measured spectrophotometrically at wavelength 570 nm using a plate reader (Stat FaxR 4200, Awareness Technology, Inc., FL, USA). […] Three independent experiments were performed for each compound and Mean ± SE were calculated.

HCT-116 = assay: MTT anti-proliferative assay; format: cell-based, human; details: for IC50: Homo sapiens, HCT-116, MTT, 24 h, mean ± SE of three experiments, read-out: IC50 (µM) ± S.E. HCT-116
Description: as §1, §2

MCF-7 = assay: MTT anti-proliferative assay; format: cell-based, human; details: for IC50: Homo sapiens, MCF7
Description: as §1, §2

topoisomerase IIα = target: T1, topoisomerase IIα (Homo sapiens, UniProt P11388); assay: Topoisomerase IIα inhibitory activity (ELISA kit); format: cell-based; details: MCF-7 cell line; for % inhibition of topoisomerase IIα activity: compounds at their IC50, compared to control; for concentration of topoisomerase IIα: compounds at their IC50, control 3.663 ± 0.09 ng/ml
T1 construct: it decreases the concentration of topoisomerase iIα in MCF-7 cell line to 1.043 ± 0.10 ng/ml; endogenous in cells; host or cells: MCF-7
T1 sequence (P11388 whole entry): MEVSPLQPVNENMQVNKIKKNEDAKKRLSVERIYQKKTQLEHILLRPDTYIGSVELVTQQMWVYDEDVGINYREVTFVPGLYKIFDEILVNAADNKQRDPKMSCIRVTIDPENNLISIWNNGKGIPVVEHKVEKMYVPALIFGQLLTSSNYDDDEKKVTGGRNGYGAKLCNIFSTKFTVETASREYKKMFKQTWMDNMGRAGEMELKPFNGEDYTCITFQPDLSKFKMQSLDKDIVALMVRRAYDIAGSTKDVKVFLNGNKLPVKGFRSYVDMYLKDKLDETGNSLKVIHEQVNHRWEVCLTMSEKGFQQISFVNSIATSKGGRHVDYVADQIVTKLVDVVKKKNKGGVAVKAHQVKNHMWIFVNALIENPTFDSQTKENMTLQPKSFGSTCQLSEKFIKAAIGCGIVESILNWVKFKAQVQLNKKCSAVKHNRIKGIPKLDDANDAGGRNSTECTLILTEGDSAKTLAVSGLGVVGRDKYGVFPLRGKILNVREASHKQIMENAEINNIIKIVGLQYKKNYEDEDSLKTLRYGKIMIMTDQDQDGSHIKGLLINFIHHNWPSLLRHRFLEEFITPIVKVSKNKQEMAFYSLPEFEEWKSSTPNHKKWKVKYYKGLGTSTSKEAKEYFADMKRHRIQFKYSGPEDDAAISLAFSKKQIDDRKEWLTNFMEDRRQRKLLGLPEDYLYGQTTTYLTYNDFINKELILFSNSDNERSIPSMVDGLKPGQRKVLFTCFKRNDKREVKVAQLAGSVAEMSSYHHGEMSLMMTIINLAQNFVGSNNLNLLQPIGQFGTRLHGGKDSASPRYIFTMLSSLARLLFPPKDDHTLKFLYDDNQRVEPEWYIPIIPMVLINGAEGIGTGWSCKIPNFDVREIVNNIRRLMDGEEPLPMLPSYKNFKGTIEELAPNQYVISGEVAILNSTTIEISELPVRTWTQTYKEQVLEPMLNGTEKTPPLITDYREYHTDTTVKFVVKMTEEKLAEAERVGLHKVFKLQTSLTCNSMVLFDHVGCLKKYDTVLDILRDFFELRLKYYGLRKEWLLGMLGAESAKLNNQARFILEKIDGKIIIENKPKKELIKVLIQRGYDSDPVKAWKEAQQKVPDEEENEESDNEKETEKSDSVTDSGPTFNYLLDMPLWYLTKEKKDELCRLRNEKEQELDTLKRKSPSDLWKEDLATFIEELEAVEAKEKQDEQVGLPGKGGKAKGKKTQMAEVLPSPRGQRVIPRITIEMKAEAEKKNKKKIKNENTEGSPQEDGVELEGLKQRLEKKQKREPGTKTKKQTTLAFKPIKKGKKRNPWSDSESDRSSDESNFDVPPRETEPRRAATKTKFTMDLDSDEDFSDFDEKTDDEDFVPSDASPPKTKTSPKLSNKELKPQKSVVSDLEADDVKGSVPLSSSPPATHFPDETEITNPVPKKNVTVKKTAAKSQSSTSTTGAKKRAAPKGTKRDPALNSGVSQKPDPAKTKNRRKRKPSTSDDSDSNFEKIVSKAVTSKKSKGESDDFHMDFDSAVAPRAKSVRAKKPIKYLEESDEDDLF
Description: Biotin-conjugated antibody was added to each well followed by incubation at 37 °C for 1 h, then the plates were aspirated. Avidin conjugated Horseradish Peroxidase (HRP avidin) solution was added to each well, incubated again at 37 °C for 1 h. TMB substrate was added to the wells and the plate was incubated at 37 °C for 30 min at dark place. The absorbance was read using spectrophotometer at a wavelength of 450 nm.

EGFR = target: T2, EGFR (Homo sapiens, UniProt P00533); assay: EGFR kinase assay kit; format: biochemical; details: mean ± SE
T2 construct: purchased BPS Bioscience, San Diego, CA, USA
T2 sequence (P00533 25-1210): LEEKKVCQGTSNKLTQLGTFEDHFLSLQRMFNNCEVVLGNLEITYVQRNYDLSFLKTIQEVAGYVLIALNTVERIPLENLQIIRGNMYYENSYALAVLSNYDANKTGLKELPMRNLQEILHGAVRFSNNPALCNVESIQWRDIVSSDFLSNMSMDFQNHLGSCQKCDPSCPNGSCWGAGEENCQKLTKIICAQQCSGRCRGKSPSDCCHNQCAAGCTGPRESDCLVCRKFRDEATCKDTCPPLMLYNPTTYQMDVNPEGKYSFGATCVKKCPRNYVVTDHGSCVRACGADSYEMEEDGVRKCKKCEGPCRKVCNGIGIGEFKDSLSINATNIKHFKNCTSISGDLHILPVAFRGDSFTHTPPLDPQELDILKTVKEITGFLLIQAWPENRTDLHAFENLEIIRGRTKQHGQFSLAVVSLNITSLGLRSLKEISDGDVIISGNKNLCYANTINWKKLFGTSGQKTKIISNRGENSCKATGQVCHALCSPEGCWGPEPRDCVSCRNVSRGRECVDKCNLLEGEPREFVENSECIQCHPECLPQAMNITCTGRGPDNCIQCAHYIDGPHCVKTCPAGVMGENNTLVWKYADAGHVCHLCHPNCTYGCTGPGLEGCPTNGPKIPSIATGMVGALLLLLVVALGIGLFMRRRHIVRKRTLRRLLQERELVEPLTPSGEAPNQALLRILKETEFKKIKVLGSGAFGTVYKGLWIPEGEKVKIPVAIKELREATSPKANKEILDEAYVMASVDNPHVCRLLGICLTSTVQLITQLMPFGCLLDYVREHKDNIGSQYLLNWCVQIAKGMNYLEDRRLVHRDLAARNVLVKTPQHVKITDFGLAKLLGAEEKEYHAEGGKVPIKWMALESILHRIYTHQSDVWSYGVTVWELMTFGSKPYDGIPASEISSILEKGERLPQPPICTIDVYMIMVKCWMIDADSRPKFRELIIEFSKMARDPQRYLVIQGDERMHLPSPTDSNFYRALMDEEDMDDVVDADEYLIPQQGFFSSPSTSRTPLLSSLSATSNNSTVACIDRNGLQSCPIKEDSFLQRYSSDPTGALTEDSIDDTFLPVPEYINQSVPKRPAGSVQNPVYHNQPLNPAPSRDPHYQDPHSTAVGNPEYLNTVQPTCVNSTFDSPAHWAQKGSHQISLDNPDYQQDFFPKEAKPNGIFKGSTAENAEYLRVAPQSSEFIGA
Description: The kinase activity of EGFR was assessed for 6a, 6c and 6i hybrids using EGFR kinase assay kit (BPS Bioscience, San Diego, CA, USA) based on the manufacturer’s instructions. Three independent experiments were performed for each compound and Mean ± SE were calculated.

Bax = Bax level ELISA in MCF-7 cells; format: cell-based, human; details: for Bax Conc.(pg/ml): MCF-7, at IC50, 24 h, control 83.16 ± 6.2; for Bax FLD: MCF-7, at IC50, fold of control cells
Description: (§3) MCF-7 cells were cultured in DMEM supplied with 10% FBS and incubated in 5% CO2 in air at 37 °C. […] Cell lysate was diluted using standard diluent buffer over the range of assay. Bax and Bcl-2 content in the lysate was assessed using human Bax ELISA kit (DRG, USA) and Bcl-2 ELISA Kit (Zymed Laboratories, Invitrogen Immuno-detection, Canada), respectively, according to the manufacturer’s instructions for each kit. The results were expressed as Mean ± SE of three independent experiments.

Bcl-2 = Bcl-2 level ELISA in MCF-7 cells; format: cell-based, human; details: for Bcl-2 Conc.(ng/ml): MCF-7, at IC50, 24 h, control 6.56 ± 0.22; for Bcl-2 FLD: MCF-7, at IC50, fold of control cells
Description: as §3

caspase-7 = assay: Caspase-7 ELISA in MCF-7 cells; format: cell-based, human; details: for Caspase 7 FLD: MCF-7, at IC50, fold of control; for Caspase 7 Conc.(ng/ml): MCF-7, at IC50, control 0.45 ± 0.03
Description: The effect of 6a, 6c and 6i hybrids on caspase-7 and −9 levels in MCF-7 cell line was measured using Human Caspase-7 ELISA Kit (BioVision Inc., Milpitas, CA 95035 USA) and Human Caspase-9 ELISA Kit (EIA-4860, DRG, USA), respectively, and according to the manufacturer’s instructions. The results were expressed as Mean ± SE of three independent experiments.

MCF-7 cells [1] = assay: In vitro DNA flow cytometry (cell cycle analysis); format: cell-based, human; details: MCF-7, at IC50, 24 h; for DNA content %Pre-G1: control 1.89; for DNA content %G2/M: control 7.68; for DNA content %S: control 35.09; for DNA content %G0-G1: control 57.23
Description: MCF-7 cells were seeded at density of 2 × 10^5 into each well of a 6-well plate. The cells were maintained in Dulbecco’s Modified Eagle’s Medium (DMEM), supplied with 10% foetal bovine serum, and incubated in a humidified atmosphere containing 5% CO2 in air for 24 h at 37 °C. The incubation medium was replaced with a fresh one containing the synthesised hybrids 6a and 6i at their IC50 in DMSO (1% v/v). The cell plates were incubated for 24 h. The cells were washed twice with cold phosphate buffered saline (PBS) then fixed with 70% ice-cold ethanol. Cells washed with PBS at 37 °C for 30 min and recovered by centrifugation at 2000 rpm for 5 min. Cells were stained using DNA fluorochrome propidium iodide (PI). The plates were incubated at room temperature for 20 min in a dark place. Then the cells were investigated with a FACS Calibre flow cytometer (Becton Dickinson, Heidelberg, Germany)[48].

MCF-7 cells [2] = assay: Annexin V-FITC/PI staining assay; format: cell-based, human; parameters: Apoptosis Total / Apoptosis Early / Apoptosis Late / Necrosis: unit not given here; details: for increase in cell necrosis compared to control / increase of cell population in early apoptotic stage compared to control / increase of late apoptotic cell population compared to control: MCF-7, at IC50; for Apoptosis Late / Apoptosis Early / Necrosis / Apoptosis Total: MCF-7, at IC50, 24 h; for Apoptosis Late: control 0.15; for Apoptosis Early: control 0.38; for Necrosis: control 1.36; for Apoptosis Total: control 1.89
Description: Cells underwent three washing cycles using ice cold PBS, then suspended in PBS. Cell apoptosis was detected by Annexin V-FITC Apoptosis Detection Kit (BioVisionResearch Products, USA). The cells were stained using PI staining solution, Annexin V-FITC and incubated for 15 min at room temperature in a dark place. Cells were investigated by flow cytometry (Ex = 488 nm; Em = 530 nm) using FACS calibre (Becton Dickinson, Heidelberg, Germany)[48].

[3] = MCF-7, concentration used for treatment, read-out: IC50 µM (Table 4)
[4] = MCF-7, concentration used for treatment, read-out: IC50 (Table 2)
[5] = MCF-7, concentration used for treatment, read-out: IC50 (Table 3)
[6] = MTT, 24 h, mean ± SE of three experiments, read-out: IC50 (µM) ± S.E. MCF-7

| Compound | IC50 (A549) [µM] | IC50 (HCT-116) [µM] | IC50 (MCF-7; [3]) [µM] | IC50 (MCF-7; [4]) [µM] | IC50 (MCF-7; [5]) [µM] | IC50 (MCF-7; [6]) [µM] | % inhibition of topoisomerase IIα activity (topoisomerase IIα) [%] | concentration of topoisomerase IIα (topoisomerase IIα) [ng/mL] | Bax Conc.(pg/ml) (Bax) [pg/mL] | Bax FLD (Bax) [fold] | Bcl-2 Conc.(ng/ml) (Bcl-2) [ng/mL] | Bcl-2 FLD (Bcl-2) [fold] | Caspase 7 FLD (caspase-7) [fold] | Caspase 7 Conc.(ng/ml) (caspase-7) [ng/mL] | DNA content %Pre-G1 (MCF-7 cells [1]) [%] | DNA content %G2/M (MCF-7 cells [1]) [%] | DNA content %S (MCF-7 cells [1]) [%] | DNA content %G0-G1 (MCF-7 cells [1]) [%] | increase in cell necrosis compared to control (MCF-7 cells [2]) [folds] | increase of cell population in early apoptotic stage compared to control (MCF-7 cells [2]) [folds] | other results |
| --- | --- | --- | --- | --- | --- | --- | --- | --- | --- | --- | --- | --- | --- | --- | --- | --- | --- | --- | --- | --- | --- |
| N#Cc1c(-c2ccc([N+](=O)[O-])cc2)nc2sc3c(n2c1=O)C(=O)c1ccccc1C3=O [Compound 6i, 2–(4-Nitrophenyl)-4,6,11-trioxo-6,11-dihydro-4H-naphtho[’',’':4,5]thiazolo-[3,2-a]pyrimidine-3-carbonitrile] | 1.55 ± 0.13 | 2.29 ± 0.18 | 1.79 | 1.79 | 1.79 | 1.79 ± 0.11 | 71.50 | 1.043 ± 0.10 | 581.5 ± 8.7 | 6.99 | 3.64 ± 0.08 | 0.55 | 20.41 | 9.20 ± 0.87 | 45.26 | 2.89 | 51.17 | 45.94 | 10.52 | 9.57 | fold superior activity than Dox (A549; A549, ratio of IC50 values): 3.19 fold; fold the activity of erlotinib (A549; A549, ratio of IC50 values): 3.35 fold; fold superior activity than Dox (HCT-116; HCT-116, ratio of IC50 values): 2.96 fold; fold the activity of erlotinib (HCT-116; HCT-116, ratio of IC50 values): 3.77 fold; fold superior activity than Dox (MCF-7; MCF-7, ratio of IC50 values): 3.13 fold; fold the activity of erlotinib (MCF-7; MCF-7, ratio of IC50 values): 4.05 fold; EGFR inhibitory activity IC50 (EGFR): nearly equipotent to that of erlotinib; increase of late apoptotic cell population compared to control (MCF-7 cells [2]): 182.06 folds; Apoptosis Late (MCF-7 cells [2]): 27.31; Apoptosis Early (MCF-7 cells [2]): 3.64; Necrosis (MCF-7 cells [2]): 14.31; Apoptosis Total (MCF-7 cells [2]): 45.26 |
| COc1ccc(-c2nc3sc4c(n3c(=O)c2C#N)C(=O)c2ccccc2C4=O)cc1 [Compound 6a, 2–(4-Methoxyphenyl)-4,6,11-trioxo-6,11-dihydro-4H-naphtho[2′,3′:4,5]-thiazolo[3,2-a]pyrimidine-3-carbonitrile] | 2.81 ± 0.18 | 3.58 ± 0.24 | 3.34 | 3.34 | 3.34 | 3.34 ± 0.21 | 35.81 | 2.351 ± 0.21 | 436.1 ± 5.1 | 5.24 | 3.99 ± 0.24 | 0.61 | 14.93 | 6.72 ± 0.23 | 33.41 | 34.78 | 28.94 | 36.28 | 6.78 | 13.84 | IC50 (EGFR; read-out: EGFR inhibitory activity IC50): 0.016 ± 0.00047 µM; increase of late apoptotic cell population compared to control (MCF-7 cells [2]): 126.13 folds; Apoptosis Late (MCF-7 cells [2]): 18.92; Apoptosis Early (MCF-7 cells [2]): 5.26; Necrosis (MCF-7 cells [2]): 9.23; Apoptosis Total (MCF-7 cells [2]): 33.41 |
